IC50 data for one molecule are collected here from BindingDB's records for doi:10.1016/j.bmcl.2006.07.074 (Boehringer Ingelheim Pharmaceuticals, 2006).

Molecules are shown by their SMILES. Bounds are passed on as bounds.

For this experiment, the target named is DNA-directed RNA polymerase II (Bos taurus). The experiment is described as follows: Inhibition of calf thymus DNA dependent RNA polymerase 2.

A word on the IC50: it is the concentration that gives 50% inhibition. Higher therefore signals a need for much substance. With `O=C(O)c1ccc2c(C3CCCCC3)c(-c3ccoc3)[nH]c2c1` [3-cyclohexyl-2-(furan-3-yl)-1H-indole-6-carboxylic acid], the IC50 is more than 125 µM.
